Test results: patent US20190053489A1, “ANTIMICROBIAL COMPOSITION” (NATIONAL UNIVERSITY CORPORATION TOKYO MEDICAL AND DENTAL …, priority 2016, published 2019)

Columns and labels:
MRSA [1] = details: reported by AOKI and KASHIWAGI; cited from earlier work
pseudomonas aeruginosa = experiment: Observation of morphological change in pseudomonas aeruginosa by electron microscope; assay type: cell-based; details: complex 0.1% by mass, lysozyme 0.05%, chitosan 0.05%, mixture each 0.05%; FIG. 17
Experimental: (§1) Next, the morphological change in MRSA was observed by using a transmission electron microscope. This observation with a transmission electron microscope was carried out as follows: the sample was sliced in 50 nm with a diamond knife as the pretreatment and was stained with uranium acetate and lead citrate, and a transmission electron microscope (JEM-1400 manufactured by JEOL Ltd.) was used. In addition, the samples were MRSA added with physiological saline and MRSA added with a lysozyme-chitosan complex with a concentration of 0.2% by mass.
Note that the morphological change in the case of adding the lysozyme-chitosan complex to pseudomonas aeruginosa was also observed using a transmission electron microscope in the same manner as above. […] In other words, the lysozyme-chitosan complex also has a resistant microbe inactivation effect for pseudomonas aeruginosa.
(§2) Observation was carried out with a scanning electron microscope for the morphological changes in MRSA and pseudomonas aeruginosa treated with the lysozyme-chitosan complex, lysozyme alone, chitosan alone, and the mixture of lysozyme and chitosan (treatment time: 2 hours). This observation with a scanning electron microscope was carried out in the same manner as Example 8 described above: osmium coating (4 nm) was performed as the conductive treatment, and a low-acceleration ultra-high resolution scanning electron microscope (SU 9000 manufactured by Hitachi High-Technologies Corporation (accelerating voltage: 1 kV)) was used. In addition, the samples were MRSA or pseudomonas aeruginosa added with physiological saline, a lysozyme-chitosan complex with a concentration of 0.1% by mass, lysozyme of 0.05% by mass, chitosan of 0.05% by mass, and a mixture of lysozyme and chitosan, each with 0.05% by mass.

MRSA IID 1677 [2] = experiment: Proliferation suppression against MRSA in a diluted medium (OD600); assay type: cell-based, Methicillin-Resistant Staphylococcus Aureus (MRSA); details: diluted 1/2.5 LB medium, 37° C., OD 600 nm; complex 0.001%, lysozyme, chitosan and each of mixture 0.0005%; FIG. 1
Experimental: This test employed MRSA IID 1677, and this microbe strain was cultured in a normal broth medium at 37° C. for 20 hours. The cultured microbial solution was collected by centrifugation (3000 rpm, 10 minutes), suspended with sterilized water, and then diluted with sterilized water so that the optical density would satisfy OD600=1.0. The resultant was diluted 2000 times (corresponding to 10^6 CFU/ml) to prepare a reaction microbial solution.
Each of the LB test medium samples was added with 100 μl of reaction microbial solution and was shake cultured under the condition of 37° C. for 48 hours. Here, the LB test medium samples were prepared using 10 ml of 1/2.5 LB medium added with
(1) 10 ml of sterilized water, (2) 10 ml of the lysozyme-chitosan complex with a concentration of 0.002% (the concentration after addition was 0.001%), (3) 10 ml of lysozyme alone with a concentration of 0.001% (the concentration after addition was 0.0005%), (4) 10 ml of chitosan alone with a concentration of 0.001% (the concentration after addition was 0.0005%), and (5) 10 ml of the mixture of lysozyme and chitosan with a concentration of 0.001% (the concentration of each after addition was 0.0005%).
After that, 3 ml was extracted at time intervals (0, 1, and 2 days), and the optical density was measured at an absorption wavelength of 600 nm. […]

MRSA [3] = experiment: Observation of morphological change in MRSA by electron microscope; assay type: cell-based, Methicillin-Resistant Staphylococcus Aureus (MRSA); details: complex 0.1% by mass, lysozyme 0.05%, chitosan 0.05%, mixture each 0.05%; FIG. 16
Experimental: First, the morphological change in MRSA was observed by using a scanning electron microscope. This observation with a scanning electron microscope was carried out as follows: osmium coating (4 nm) was performed as the conductive treatment, and a low-acceleration ultra-high resolution scanning electron microscope (SU 9000 manufactured by Hitachi High-Technologies Corporation (accelerating voltage: 1 kV)) was used. In addition, the samples were MRSA added with physiological saline and MRSA added with a lysozyme-chitosan complex with a concentration of 0.2% by mass.
as §1, §2

[4] = system: Micrococcus luteus bacteria; experiment: Heat resistance evaluation by bacteriolytic test; assay type: physicochemical; details: 80° C. for 2 hours; ΔOD at 10 minutes with vs without heating; complex 5%, lysozyme 2.5% aqueous solution; FIG. 6(D)
Experimental: This test is a bacteriolytic test using Micrococcus luteus bacteria being lysozyme-sensitive bacteria. Note that the bacteriolytic activity is an activity specific to lysozyme. Lysozyme is a protein relatively stable against heat. However, it is known that this activity generally decreases considerably for lysozyme heated at 80° C. for 30 minutes.
This test employed an aqueous solution of the lysozyme-chitosan complex with a concentration of 5%, an aqueous solution of lysozyme with a concentration of 2.5%, and an aqueous solution of the mixture of lysozyme and chitosan with a concentration of […]. In addition, Micrococcus luteus bacteria manufactured by Wako Pure Chemical Industries, Ltd. were used as the use bacteria.
First, 1 g of Micrococcus luteus bacteria was weighed on the day before the test, added to 100 ml of physiological saline, and stirred overnight at 4° C. […]
In an optical density meter, 2800 μl of the test microbial solution was set to record OD (0-1) immediately before the addition of the sample. […] Since OD increased here, the highest value OD (0-2) was recorded.
Timer measurement was started after the addition of the sample to record OD at the time of 2, 4, 6, 8, and 10 minutes passed. Each test was carried out twice, and the average was calculated.
With OD for (0-2) being OD at the time of the start, Δoptical density (AOD) at each point was calculated. […]

MRSA IID 1677 [5] = experiment: Proliferation suppression against MRSA in a standard medium (colony count method); assay type: cell-based, Methicillin-Resistant Staphylococcus Aureus (MRSA); details: standard TSB medium with phosphate buffer pH 7.0; complex 0.2%, lysozyme, chitosan, each of mixture 0.1%; FIG. 7
Experimental: This test employed MRSA IID 1677, and this microbe strain was inoculated in 20 ml of a normal broth medium (manufactured by Eiken Chemical Co., Ltd., ‘Eiken’) for overnight shake culture at 37° C. The cultured microbial solution was collected by centrifugation (3000 rpm, 10 minutes), suspended with sterilized water, and then diluted with sterilized water so that the optical density would satisfy OD600=1.0. The resultant was diluted 2000 times (corresponding to 10^6 CFU/ml) to prepare a reaction microbial solution.
Here, the TSB test medium samples were prepared using 10 ml of TSB medium (BD BBL™) added with 200 μl of 1 M phosphate buffer (pH 7.0), followed by further addition of
(1) 10 ml of sterilized water, ([…]), (3) 10 ml of lysozyme alone with a concentration of 0.2% (the concentration after addition was 0.1%), (4) 10 ml of chitosan alone with a concentration of 0.2% (the concentration after addition was 0.1%), and (5) 10 ml of the mixture of lysozyme and chitosan with a concentration of 0.2% (the concentration of each after addition was 0.1%).
After that, 100 μl was extracted and seeded on the MH agar medium, and the number of colonies produced was observed (colony count method). […] Note that the results of FIG. 7 are each the average value of the values obtained by carrying out the colony count method three times.
Note that the results of FIG. 8 are each the average value obtained with two replicate samples.

Compound	generation at which a resistant microbe is observed to produce (MRSA [1])	morphological change in pseudomonas aeruginosa, scanning electron microscope, treatment time 2 hours (pseudomonas aeruginosa)	proliferation suppression effect against MRSA for 48 hours (MRSA IID 1677 [2])	morphological change in MRSA, scanning electron microscope, treatment time 2 hours (MRSA [3])	residual activity (bacteriolytic) after heating treatment [4]	proliferation suppression effect against MRSA (ratio of colonies produced 6 hours later to control) (MRSA IID 1677 [5])
gentamicin	third generation	–	–	–	–	–
lysozyme [lysozyme alone, reference compound]	–	no significant morphological change was observed	observed to some extent	no significant morphological change was observed	73.3%	almost no proliferation suppression effect
CN(C)c1ccc(O)c2c1C[C@H]1C[C@H]3[C@H](N(C)C)C(O)=C(C(N)=O)C(=O)[C@@]3(O)C(O)=C1C2=O [minomycin]	sixth generation	–	–	–	–	–
